The record followed here is PubChem BioAssay (NCI).

Molecules are shown by their SMILES.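 In this assay, cells in 96-well plates receive the compound at five concentrations for 48 hours. Endpoints are linearly interpolated between the surrounding concentrations. TGI marks complete inhibition of growth.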

Some test systems named below: DU-145 prostate; HL-60(TB) leukemia; KM20L2 colon; LXFL 529 NSCLC; M19-MEL melanoma; MDA-MB-435; MOLT-4 leukemia; NCI-H226 lung; NCI-H23 lung; NCI/ADR-RES ovarian; OVCAR-5 ovarian; PC-3 prostate; RPMI-8226 leukemia; SF-539 CNS.
Common to all, as to assay: inhibition of tumour cell growth, NCI panel, 48 h

Consider `CC(C)n1c2c([n+](C)c1/C=C/c1ccccc1)C(=O)c1ccccc1C2=O`, for which the TGI was found to be 0.948 µM with DU-145 prostate; 1.14 µM with HL-60(TB) leukemia; 1.31 µM in the assay on KM20L2 colon; 0.788 µM in the assay on LXFL 529 NSCLC; 0.321 µM in the assay on M19-MEL melanoma; 0.547 µM with MDA-MB-435. Further, the TGI is 0.745 µM with MOLT-4 leukemia; 2.2 µM in the assay with NCI-H226 lung; 0.412 µM in the assay on NCI-H23 lung; over 100 µM in the assay with NCI/ADR-RES ovarian; 1.28 µM in the assay with OVCAR-5 ovarian; 0.726 µM in the assay with PC-3 prostate. The results for the TGI in the assay with RPMI-8226 leukemia and in the assay with SF-539 CNS were 8.96 µM and 0.363 µM, respectively.
Take `O=C(O)CC/C(=N\Nc1nsc2ccccc12)c1ccc(Cl)cc1`: the TGI was over 100 µM in the assay on DU-145 prostate; 59.9 µM with HL-60(TB) leukemia; over 100 µM with KM20L2 colon; 41.1 µM in the assay on LXFL 529 NSCLC; over 100 µM with M19-MEL melanoma; 75.3 µM in the assay on MDA-MB-435. The TGI in the assay with MOLT-4 leukemia was 73.5 µM; in the assay with NCI-H226 lung, over 100 µM; in the assay on NCI-H23 lung, 59.2 µM; in the assay on OVCAR-5 ovarian it was over 100 µM; with PC-3 prostate, over 100 µM; with RPMI-8226 leukemia, 45.9 µM. Moreover, the TGI in the assay on SF-539 CNS was over 89.8 µM.
`CC(C)OP(=O)(OC(C)C)C(=Nc1ccccc1)NNc1ccc([N+](=O)[O-])cc1`: the TGI was 46.2 µM with HL-60(TB) leukemia; over 100 µM with KM20L2 colon; over 100 µM in the assay on LXFL 529 NSCLC; over 100 µM with M19-MEL melanoma; 41.9 µM in the assay with MOLT-4 leukemia; 84.9 µM in the assay with NCI-H226 lung. The TGI was over 100 µM with NCI-H23 lung, over 100 µM in the assay on OVCAR-5 ovarian, 70.4 µM in the assay on RPMI-8226 leukemia and over 100 µM in the assay on SF-539 CNS.
